{
  "source": "PubChem BioAssay (NCI)",
  "assay_in_all_cases": "inhibition of tumour cell growth, NCI panel, 48 h",
  "key": {"KM20L2 colon": {"tested_on": "KM20L2 colon"}, "DMS 114 small cell lung": {"tested_on": "DMS 114 small cell lung"}, "HOP-18 NSCLC": {"tested_on": "HOP-18 NSCLC"}, "DLD-1 colon": {"tested_on": "DLD-1 colon"}, "M19-MEL melanoma": {"tested_on": "M19-MEL melanoma"}, "DMS 273 small cell lung": {"tested_on": "DMS 273 small cell lung"}, "LXFL 529 NSCLC": {"tested_on": "LXFL 529 NSCLC"}},
  "note": "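Exposure lasted 48 hours, with cells grown in 96-well plates and compounds tested at five concentrations. TGI: total growth inhibition.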",
  "data": [
    {"smiles": "COc1cccc(C2c3cc4c(cc3OC(O)(CO)C2C(=O)O)OCO4)c1", "note": "(stereo not given) (tested in a mixture with another compound)", "values": [
      {"measurement": "TGI", "setting": "KM20L2 colon", "result": "> 100", "unit": "µM"},
      {"measurement": "TGI", "setting": "DMS 114 small cell lung", "result": "> 100", "unit": "µM"},
      {"measurement": "TGI", "setting": "HOP-18 NSCLC", "result": "> 100", "unit": "µM"},
      {"measurement": "TGI", "setting": "DLD-1 colon", "result": "> 100", "unit": "µM"},
      {"measurement": "TGI", "setting": "M19-MEL melanoma", "result": "> 100", "unit": "µM"},
      {"measurement": "TGI", "setting": "DMS 273 small cell lung", "result": "> 100", "unit": "µM"},
      {"measurement": "TGI", "setting": "LXFL 529 NSCLC", "result": "> 100", "unit": "µM"}
    ]},
    {"smiles": "COc1ccc(NC(=O)c2cc(OC)c(OC)c(OC)c2)cc1", "values": [
      {"measurement": "TGI", "setting": "KM20L2 colon", "result": "> 100", "unit": "µM"},
      {"measurement": "TGI", "setting": "DMS 114 small cell lung", "result": "> 100", "unit": "µM"},
      {"measurement": "TGI", "setting": "HOP-18 NSCLC", "result": "> 100", "unit": "µM"},
      {"measurement": "TGI", "setting": "DLD-1 colon", "result": "> 100", "unit": "µM"},
      {"measurement": "TGI", "setting": "M19-MEL melanoma", "result": "> 100", "unit": "µM"},
      {"measurement": "TGI", "setting": "DMS 273 small cell lung", "result": "> 100", "unit": "µM"},
      {"measurement": "TGI", "setting": "LXFL 529 NSCLC", "result": "> 100", "unit": "µM"}
    ]},
    {"smiles": "COc1ccc2oc3cccc(NCCN(C)C)c3c(=O)c2c1", "values": [
      {"measurement": "TGI", "setting": "KM20L2 colon", "result": 22, "unit": "µM"},
      {"measurement": "TGI", "setting": "DMS 114 small cell lung", "result": 27, "unit": "µM"},
      {"measurement": "TGI", "setting": "HOP-18 NSCLC", "result": 24, "unit": "µM"},
      {"measurement": "TGI", "setting": "DLD-1 colon", "result": 27.5, "unit": "µM"},
      {"measurement": "TGI", "setting": "M19-MEL melanoma", "result": 29.9, "unit": "µM"},
      {"measurement": "TGI", "setting": "DMS 273 small cell lung", "result": 25.3, "unit": "µM"},
      {"measurement": "TGI", "setting": "LXFL 529 NSCLC", "result": 26, "unit": "µM"}
    ]},
    {"smiles": "CCCCCCCCCc1cc(=O)c2ccc(O)cc2o1", "values": [
      {"measurement": "TGI", "setting": "KM20L2 colon", "result": "> 100", "unit": "µM"},
      {"measurement": "TGI", "setting": "DMS 114 small cell lung", "result": "> 100", "unit": "µM"},
      {"measurement": "TGI", "setting": "HOP-18 NSCLC", "result": "> 100", "unit": "µM"},
      {"measurement": "TGI", "setting": "DLD-1 colon", "result": "> 100", "unit": "µM"},
      {"measurement": "TGI", "setting": "M19-MEL melanoma", "result": "> 100", "unit": "µM"},
      {"measurement": "TGI", "setting": "DMS 273 small cell lung", "result": "> 100", "unit": "µM"},
      {"measurement": "TGI", "setting": "LXFL 529 NSCLC", "result": "> 100", "unit": "µM"}
    ]},
    {"smiles": "COc1cccc(C(=O)C2C(=O)N(C)CCc3ccccc32)c1OC", "note": "(stereo not given)", "values": [
      {"measurement": "TGI", "setting": "KM20L2 colon", "result": "> 100", "unit": "µM"},
      {"measurement": "TGI", "setting": "DMS 114 small cell lung", "result": "> 100", "unit": "µM"},
      {"measurement": "TGI", "setting": "HOP-18 NSCLC", "result": "> 100", "unit": "µM"},
      {"measurement": "TGI", "setting": "DLD-1 colon", "result": "> 100", "unit": "µM"},
      {"measurement": "TGI", "setting": "M19-MEL melanoma", "result": "> 100", "unit": "µM"},
      {"measurement": "TGI", "setting": "DMS 273 small cell lung", "result": "> 100", "unit": "µM"},
      {"measurement": "TGI", "setting": "LXFL 529 NSCLC", "result": "> 100", "unit": "µM"}
    ]}
  ]
}
